For 17 compounds, IC50 results are on record in US9163011B2, “Oxazine derivatives and their use in the treatment of disease” (NOVARTIS AG, priority 2011, dated 2015).

One assay has as its target Human BACE-1 (Homo sapiens (Human), UniProt P56817). The experiment in a line: Test 1: Inhibition of Human BACE-1. Format: biochemical. The note with it: recombinant BACE-1, pH 4.5, 1 hour preincubation. The protocol:
Test 1: Inhibition of Human BACE-1
(§1) Recombinant BACE-1 (extracellular domain, expressed in baculovirus and purified using standard methods) at 0.1 to 1 nM concentrations is incubated with the test compound at various concentrations for 1 hour at room temperature in 100 mM acetate buffer, pH 4.5, containing 0.1% CHAPS. Activity was measured using a final concentration of 3 μM of the fluorescence-quenched substrate Q-C(HSO3)-Ile-Asp-Leu-Ala-Val-Leu-Asp-HN—CH2—CH2-Mca, where Q=2-nitro-5-amino benzoic acid and Mca=7-methoxy-4-coumarinyl acetic acid. Catalytic turnover was monitored in a Spectramax Gemini fluorescence plate reader (Molecular Devices) in black 96-well microplates using excitation/emission wavelength of 325 nm and 400 nm, respectively. Fluorescence increase was followed for 15 min, in 1 minute's intervals. The fluorescence/time slopes were calculated from duplicate wells and from wells without inhibitor and the IC50 values were calculated using a logistic 4-parameter model.

Assay [1] can be described thus: Test 4: Inhibition of Cellular Release of Amyloid Peptide 1-40. Format: cell-based, Chinese hamster. The settings on record: Cricetulus griseus; CHO cells with human APP, 24 hours with compound; read-out: Test 4 Amyloid-β1-40 release IC50. The protocol:
The cells are plated at a density of 8000 cells/well into 96-well microtiter plates and cultivated for 24 hours in DMEM cell culture medium containing 10% FCS. The test compound is added to the cells at various concentrations, and the cells are cultivated for 24 hours in the presence of the test compound. […] The potency of the compound is calculated from the percentage of inhibition of amyloid peptide release as a function of the test compound concentration.

For another assay, the target named is Human BACE-2 (Homo sapiens (Human), UniProt Q9Y5Z0). Nature of the assay: Test 2: Inhibition of Human BACE-2. Format: biochemical. The settings on record: recombinant BACE-2, pH 4.5, 1 hour preincubation. The protocol:
Test 2: Inhibition of Human BACE-2
as §1, with “BACE-2” for “BACE-1”

pIC50: −log10 of the molar value.

Chain of Human BACE-1 (P56817 46-457): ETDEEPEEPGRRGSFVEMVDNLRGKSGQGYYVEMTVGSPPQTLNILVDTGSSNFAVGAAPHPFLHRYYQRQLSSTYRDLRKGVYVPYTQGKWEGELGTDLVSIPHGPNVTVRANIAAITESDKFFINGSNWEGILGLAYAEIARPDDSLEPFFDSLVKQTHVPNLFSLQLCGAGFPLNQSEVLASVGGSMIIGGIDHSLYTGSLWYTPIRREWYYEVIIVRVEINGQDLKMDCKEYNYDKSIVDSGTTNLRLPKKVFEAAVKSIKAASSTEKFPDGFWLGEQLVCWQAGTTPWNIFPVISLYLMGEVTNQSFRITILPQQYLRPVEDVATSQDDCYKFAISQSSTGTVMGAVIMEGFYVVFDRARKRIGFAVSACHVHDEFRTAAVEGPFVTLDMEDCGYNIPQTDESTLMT
Chain of Human BACE-2 (Q9Y5Z0 63-473): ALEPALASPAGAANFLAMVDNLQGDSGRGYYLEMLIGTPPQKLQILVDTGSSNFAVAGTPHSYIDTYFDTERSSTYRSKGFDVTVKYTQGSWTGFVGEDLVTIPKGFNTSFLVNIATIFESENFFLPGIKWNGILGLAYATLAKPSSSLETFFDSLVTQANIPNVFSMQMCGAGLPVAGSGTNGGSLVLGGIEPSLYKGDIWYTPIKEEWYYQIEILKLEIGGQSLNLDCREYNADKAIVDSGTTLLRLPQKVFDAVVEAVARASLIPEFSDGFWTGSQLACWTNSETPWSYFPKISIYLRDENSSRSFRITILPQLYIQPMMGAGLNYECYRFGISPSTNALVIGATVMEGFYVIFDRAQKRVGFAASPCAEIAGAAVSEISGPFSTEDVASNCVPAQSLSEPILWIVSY

With `C[C@]1(c2nc(NC(=O)c3nccnc3N)ccc2F)N=C(N)OCC1(F)F` [Example 31, 3-Amino-pyrazine-2-carboxylic acid [6-((R)-2-amino-5,5-difluoro-4-methyl-5,6-dihydro-4H-[1,3]oxazin-4-yl)-5-fluoro-pyridin-2-yl]-amide], the pIC50 was 6.27 at Human BACE-1, 6.74 in assay [1] and 6.31 on Human BACE-2.

For the compound `COCC#Cc1cnc(C(=O)Nc2ccc(F)c([C@@]3(C)N=C(N)OCC3(F)F)n2)c(N)c1` [Example 14, 3-Amino-5-(3-methoxy-prop-1-ynyl)-pyridine-2-carboxylic acid [6-((R)-2-amino-5,5-difluoro-4-methyl-5,6-dihydro-4H-[1,3]oxazin-4-yl)-5-fluoro-pyridin-2-yl]-amide], the pIC50 in assay [1] is 6.27.

On to `C[C@]1(c2nc(NC(=O)c3ncc(OCCCl)nc3N)ccc2F)N=C(N)OCC1(F)F` [Example 23, 3-Amino-5-(2-chloro-ethoxy)-pyrazine-2-carboxylic acid [6-((R)-2-amino-5,5-difluoro-4-methyl-5,6-dihydro-4H-[1,3]oxazin-4-yl)-5-fluoro-pyridin-2-yl]-amide], for which the pIC50 on Human BACE-1 is 5.06; in assay [1], 5.54; on Human BACE-2, less than 5.00.

For `COc1cnc(C(=O)Nc2ccc(F)c([C@@]3(C)N=C(N)OCC3(F)F)n2)c(C)c1` [Example 13, 5-Methoxy-3-methyl-pyridine-2-carboxylic acid [6-((R)-2-amino-5,5-difluoro-4-methyl-5,6-dihydro-4H-[1,3]oxazin-4-yl)-5-fluoro-pyridin-2-yl]-amide], the pIC50 in assay [1] is 7.09.

With `C[C@]1(c2nc(NC(=O)c3ccc(C#N)cn3)ccc2F)N=C(N)OCC1(F)F` [Example 35, 5-Cyano-pyridine-2-carboxylic acid [6-((R)-2-amino-5,5-difluoro-4-methyl-5,6-dihydro-4H-[1,3]oxazin-4-yl)-5-fluoro-pyridin-2-yl]-amide], the figures for the pIC50 (at Human BACE-1; in assay [1]; on Human BACE-2) were 7.27, 7.85 and 6.59, respectively.

On to `C[C@]1(c2nc(NC(=O)c3ncc(Cl)cc3N)ccc2F)N=C(N)OCC1(F)F` [Example 19, 3-Amino-5-chloro-pyridine-2-carboxylic acid [6-((R)-2-amino-5,5-difluoro-4-methyl-5,6-dihydro-4H-[1,3]oxazin-4-yl)-5-fluoro-pyridin-2-yl]-amide], for which the values for the pIC50 (on Human BACE-1; in assay [1]; at Human BACE-2) were 7.22, 7.35 and 7.32, respectively.

With `C[C@]1(c2nc(NC(=O)c3ncc(OCC(F)F)cc3Cl)ccc2F)N=C(N)OCC1(F)F` [Example 24, 3-Chloro-5-(2,2-difluoro-ethoxy)-pyridine-2-carboxylic acid [6-((R)-2-amino-5,5-difluoro-4-methyl-5,6-dihydro-4H-[1,3]oxazin-4-yl)-5-fluoro-pyridin-2-yl]-amide], the pIC50 at Human BACE-1 was 6.62; in assay [1] it was 6.60; on Human BACE-2 it was 5.35.

As for `Cc1cc(C#N)cnc1C(=O)Nc1ccc(F)c([C@@]2(C)N=C(N)OCC2(F)F)n1` [Example 1, 5-Cyano-3-methyl-pyridine-2-carboxylic acid [6-((R)-2-amino-5,5-difluoro-4-methyl-5,6-dihydro-4H-[1,3]oxazin-4-yl)-5-fluoro-pyridin-2-yl]-amide], the pIC50 on Human BACE-1 was 7.92; in assay [1], 8.15; on Human BACE-2, 7.18.

With `C[C@]1(c2nc(NC(=O)c3ncc(OCCCF)nc3N)ccc2F)N=C(N)OCC1(F)F` [Example 12, 3-Amino-5-(3-fluoro-propoxy)-pyrazine-2-carboxylic acid [6-((R)-2-amino-5,5-difluoro-4-methyl-5,6-dihydro-4H-[1,3]oxazin-4-yl)-5-fluoro-pyridin-2-yl]-amide], the pIC50 on Human BACE-1 was 5.92; in assay [1] it was 6.51; at Human BACE-2 it was less than 5.00.

Consider `CC(F)(F)c1cnc(C(=O)Nc2ccc(F)c([C@@]3(C)N=C(N)OCC3(F)F)n2)c(N)n1` [Example 37, 3-Amino-5-(1,1-difluoro-ethyl)-pyrazine-2-carboxylic acid [6-((R)-2-amino-5,5-difluoro-4-methyl-5,6-dihydro-4H-[1,3]oxazin-4-yl)-5-fluoro-pyridin-2-yl]-amide], for which the negative logarithm of the IC50 (pIC50) on Human BACE-1 is 7.19; in assay [1], 6.51; at Human BACE-2, less than 5.00.

`C[C@]1(c2nc(NC(=O)c3ncc(C(F)F)nc3N)ccc2F)N=C(N)OCC1(F)F` [Example 22, 3-Amino-5-difluoromethyl-pyrazine-2-carboxylic acid [6-((R)-2-amino-5,5-difluoro-4-methyl-5,6-dihydro-4H-[1,3]oxazin-4-yl)-5-fluoro-pyridin-2-yl]-amide]: the pIC50 on Human BACE-1 was 6.72; in assay [1], 7.22; on Human BACE-2, 6.24.

On to `C[C@]1(c2nc(NC(=O)c3ncc(OCF)nc3N)ccc2F)N=C(N)OCC1(F)F` [Example 15, 3-Amino-5-fluoromethoxy-pyrazine-2-carboxylic acid [6-((R)-2-amino-5,5-difluoro-4-methyl-5,6-dihydro-4H-[1,3]oxazin-4-yl)-5-fluoro-pyridin-2-yl]-amide], for which the pIC50 at Human BACE-1 was 6.96; in assay [1], 7.52; on Human BACE-2 it was 6.14.

On to `C[C@]1(c2nc(NC(=O)c3ncc(OCCF)nc3N)ccc2F)N=C(N)OCC1(F)F` [Example 25, 3-Amino-5-(2-fluoro-ethoxy)-pyrazine-2-carboxylic acid [6-((R)-2-amino-5,5-difluoro-4-methyl-5,6-dihydro-4H-[1,3]oxazin-4-yl)-5-fluoro-pyridin-2-yl]-amide], for which the negative-log IC50 (pIC50) was 6.24 on Human BACE-1, 6.32 in assay [1] and less than 5.00 at Human BACE-2.

For `COCCc1cnc(C(=O)Nc2ccc(F)c([C@@]3(C)N=C(N)OCC3(F)F)n2)c(N)n1` [Example 29, 3-Amino-5-(2-methoxy-ethyl)-pyrazine-2-carboxylic acid [6-((R)-2-amino-5,5-difluoro-4-methyl-5,6-dihydro-4H-[1,3]oxazin-4-yl)-5-fluoro-pyridin-2-yl]-amide], the pIC50 was 6.82 on Human BACE-1, 7.15 in assay [1] and 5.25 at Human BACE-2.

In the case of `COCCOc1cnc(C(=O)Nc2ccc(F)c([C@@]3(C)N=C(N)OCC3(F)F)n2)c(N)n1` [Example 16, 3-Amino-5-(2-methoxy-ethoxy)-pyrazine-2-carboxylic acid [6-((R)-2-amino-5,5-difluoro-4-methyl-5,6-dihydro-4H-[1,3]oxazin-4-yl)-5-fluoro-pyridin-2-yl]amide], the negative-log IC50 (pIC50) was 6.92 at Human BACE-1 and 5.05 at Human BACE-2.

Take `COCC[C@@]1(c2nc(NC(=O)c3ncc(C#N)cc3C)ccc2F)N=C(N)OCC1(F)F` [Example 5]: the negative logarithm of the IC50 (pIC50) in assay [1] was less than 5.00.

Consider `CC(F)(F)c1cnc(C(=O)Nc2ccc(F)c([C@@]3(C)N=C(N)OCC3(F)F)n2)c(Cl)c1` [Example 36, 3-Chloro-5-(1,1-difluoro-ethyl)-pyridine-2-carboxylic acid [6-((R)-2-amino-5,5-difluoro-4-methyl-5,6-dihydro-4H-[1,3]oxazin-4-yl)-5-fluoro-pyridin-2-yl]-amide], for which the pIC50 in assay [1] was 7.24.
